Experiment [1] has as its target T1, human β2 adrenergic receptor (Homo sapiens, UniProt P07550).
T1 construct: expressed in transfected cells; membrane preparation
The experiment is described as follows: Radioligand binding assay (Test A). Conditions: for pKi: [3H]dihydroalprenolol displacement, HEK-293 membranes, results expressed as pKi; for Selectivity β2/β1 (binding): ratio Ki(β1)/Ki(β2). The procedure: HEK-293 derived cell lines stably expressing cloned human β1 or β2 adrenergic receptors, respectively, were grown to near confluency in DMEM with 10% dialyzed FBS in the presence of 500 μg/mL Geneticin. The cell monolayer was lifted with Versene 1:5,000 (0.2 g/L EDTA in PBS) using a cell scraper. Cells were pelleted by centrifugation at 1,000 rpm, and cell pellets were either stored frozen at −80° C. or membranes were prepared immediately. For preparation, cell pellets were resuspended in lysis buffer (10 mM Tris/HCL pH 7.4 @ 4° C., one tablet of “Complete Protease Inhibitor Cocktail Tablets with 2 mM EDTA” per 50 mL buffer (Roche cat.# 1697498, Roche Molecular Biochemicals, Indianapolis, Ind.)) and homogenized using a tight-fitting Dounce glass homogenizer (20 strokes) on ice. The homogenate was centrifuged at 20,000×g, the pellet was washed once with lysis buffer by resuspension and centrifugation as above. The final pellet was resuspended in membrane buffer (75 mM Tris/HCl pH 7.4, […], 1 mM EDTA @ 25° C.). Protein concentration of the membrane suspension was determined by the method of Bradford (Bradford M M., Analytical Biochemistry, 1976, 72, 248-54). Membranes were stored frozen in aliquots at −80° C.
Binding assays were performed in 96-well microtiter plates in a total assay volume of 100 μL with 5 μg membrane protein for membranes containing the human β2 adrenergic receptor, or 2.5 μg membrane protein for membranes containing the human β1 adrenergic receptor in assay buffer (75 mM Tris/HCl pH 7.4 @ 25° C., 12.5 mM MgCl2, 1 mM EDTA, 0.2% BSA). […] Non-specific binding was determined in the presence of 10 μM unlabeled alprenolol. […] Filter plates were washed three times with filtration buffer (75 mM Tris/HCl pH 7.4 @ 4° C., 12.5 mM MgCl2, 1 mM EDTA) to remove unbound radioactivity. Plates were dried, 50 μL Microscint-20 liquid scintillation fluid (Packard BioScience Co., Meriden, Conn.) was added and plates were counted in a Packard Topcount liquid scintillation counter (Packard BioScience Co., Meriden, Conn.). Binding data were analyzed by nonlinear regression analysis with the GraphPad Prism Software package (GraphPad Software, Inc., San Diego, Calif.) using the 3-parameter model for one-site competition. The curve minimum was fixed to the value for nonspecific binding, as determined in the presence of 10 μM alprenolol. Ki values for compounds were calculated from observed IC50 values and the Kd value of the radioligand using the Cheng-Prusoff equation (Cheng Y, and Prusoff W H., Biochemical Pharmacology, 1973, 22, 23, 3099-108). The receptor subtype selectivity was calculated as the ratio of Ki(β1)/Ki(β2).
Binding results are expressed as the negative decadic logarithm of the Ki values, pKi. […]

Another experiment has as its target T2, human β2-adrenoceptor (Homo sapiens, UniProt P07550).
T2 construct: expressed in transfected cells
Kind of experiment: Whole-cell cAMP Flashplate assay, recombinant cell line (Test B). The class given is cell-based. Particulars: for pEC50: HEK-293 cells expressing cloned human β2-adrenoceptor, cAMP; for Selectivity β2/β1 (functional): ratio EC50(β1)/EC50(β2); for Selectivity β2/β3 (functional): ratio EC50(β3)/EC50(β2). The procedure: A HEK-293 cell line stably expressing cloned human β1 adrenergic receptor (clone H34.1) was grown to about 70%-90% confluency in medium consisting of DMEM supplemented with 10% FBS and 500 μg/mL Geneticin. A HEK-293 cell line stably expressing cloned human β2-adrenoceptor (clone H24.14) was grown in the same medium to full confluency. A CHO-K1 cell line stably expressing cloned human β3-adrenoceptor was grown to about 70%-90% confluency in Ham's F-12 medium supplemented with 10% FBS and with 800 μg/mL Geneticin added to every fifth passage. The day before the assay, cultures were switched to the same growth-media without antibiotics.
cAMP assays were performed in a radioimmunoassay format using the Flashplate Adenylyl Cyclase Activation Assay System with ^125I-cAMP (NEN SMP004, PerkinElmer Life Sciences Inc., Boston, Mass.), according to the manufacturers instructions.
On the day of the assay, cells were rinsed once with PBS, lifted with Versene 1:5,000 (0.2 g/L EDTA in PBS) and counted. Cells were pelleted by centrifugation at 1,000 rpm and resuspended in stimulation buffer prewarmed to 37° C. For cells expressing the β1-adrenoceptor, 10 nM ICI 118,551 were added to the stimulation buffer, and cells were incubated for 10 min at 37° C. Cells were used at final concentrations of 30,000, 40,000 and 70,000 cells/well for the β1-adrenoceptor-, the β2-adrenoceptor- and the β3-adrenoceptor expressing cells, respectively. Compounds were dissolved to a concentration of 10 mM in DMSO, then diluted to 1 mM in 50 mM Gly-HCl pH 3.0, and from there serially diluted into assay buffer (75 mM Tris/HCl pH 7.4 @ 25° C., 12.5 mM MgCl2, 1 mM EDTA, 0.2% BSA). Compounds were tested in the assay at 11 different concentrations, ranging from 10 μM to […]. Reactions were incubated for 10 min at 37° C. and stopped by addition of 100 μL ice-cold detection buffer. Plates were sealed, incubated over night at 4° C. and counted the next morning in a topcount scintillation counter (Packard BioScience Co., Meriden, Conn.). The amount of cAMP produced per mL of reaction was calculated based on the counts observed for the samples and cAMP standards, as described in the manufacturer's user manual. Data were analyzed by nonlinear regression analysis with the GraphPad Prism Software package (GraphPad Software, Inc., San Diego, Calif.) using the 3-parameter model for sigmoidal dose-response (Hill slope=1). Agonist potencies were expressed as pEC50 values. Functional β2/β1 selectivity was defined as the ratio EC50(β1)/EC50(β2), and correspondingly functional β2/β3 selectivity was defined as the ratio EC50(β3)/EC50(β2).

Experiment [2] addresses T1, human β2 adrenergic receptor. Kind of experiment: Whole-cell cAMP Flashplate assay, lung epithelial cell line BEAS-2B endogenously expressing receptor (Test C). It is filed as cell-based. The procedure:
For the determination of agonist potencies and efficacies (intrinsic activities) in a cell line expressing endogenous levels of β2 adrenergic receptor, a human lung epithelial cell line (BEAS-2B) was used (ATCC CRL-9609, American Type Culture Collection, Manassas, Va.) (January B, et al., British Journal of Pharmacology, 1998, 123, 4, 701-11). Cells were grown to 75-90% confluency in complete, serum-free medium (LHC-9 MEDIUM containing Epinephrine and Retinoic Acid, cat #181-500, Biosource International, Camarillo, Calif.). The day before the assay, medium was switched to LHC-8 (No epinephrine or retinoic acid, cat #141-500, Biosource International, Camarillo, Calif.). […]
On the day of the assay, cells were rinsed with PBS, lifted by scraping with 5 mM EDTA in PBS, and counted. […]
Compounds were tested in the assay at 10 different concentrations, ranging from 10 μM to […]. Maximal response was determined in the presence of 10 μM Isoproterenol. […] Plates were sealed, incubated over night at 4° C. and counted the next morning in a topcount scintillation counter (Packard BioScience Co., Meriden, Conn.). The amount of cAMP produced per mL of reaction was calculated based on the counts observed for samples and cAMP standards, as described in the manufacturer's user manual. […]

Experiment [3] has as its system acetylcholine-induced bronchospasm. The experiment is described as follows: Bronchoprotection against acetylcholine-induced bronchospasm in a guinea pig model (Test D). The class given is in vivo. Conditions: inhalation. The procedure:
Groups of 6 male guinea pigs (Duncan-Hartley (HsdPoc:DH) Harlan, Madison, Wis.) weighing between 250 and 350 g were individually identified by cage cards. Throughout the study animals were allowed access to food and water ad libitum.
Test compounds were administered via inhalation over 10 minutes in a whole-body exposure dosing chamber (R&S Molds, San Carlos, Calif.). The dosing chambers were arranged so that an aerosol was simultaneously delivered to 6 individual chambers from a central manifold. Following a 60 minute acclimation period and a 10 minute exposure to nebulized water for injection (WFI), guinea pigs were exposed to an aerosol of test compound or vehicle (WFI). These aerosols were generated from aqueous solutions using an LC Star Nebulizer Set (Model 22F51, PARI Respiratory Equipment, Inc. Midlothian, Va.) driven by a mixture of gases (CO2=5%, O2=21% and N2=74%) at a pressure of 22 psi. The gas flow through the nebulizer at this operating pressure was approximately 3 L/minute. The generated aerosols were driven into the chambers by positive pressure. No dilution air was used during the delivery of aerosolized solutions. During the 10 minute nebulization, approximately 1.8 mL of solution was nebulized. This was measured gravimetrically by comparing pre- and post-nebulization weights of the filled nebulizer.
The bronchoprotective effects of compounds administered via inhalation were evaluated using whole body plethysmography at 1.5, 24, 48 and 72 hours post-dose. Forty-five minutes prior to the start of the pulmonary evaluation, each guinea pig was anesthetized with an intramuscular injection of ketamine (43.75 mg/kg), xylazine (3.50 mg/kg) and acepromazine (1.05 mg/kg). After the surgical site was shaved and cleaned with 70% alcohol, a 2-5 cm midline incision of the ventral aspect of the neck was made. Then, the jugular vein was isolated and cannulated with a saline-filled polyethylene catheter (PE-50, Becton Dickinson, Sparks, Md.) to allow for intravenous infusions of a 0.1 mg/mL solution of acetylcholine (Ach), (Sigma-Aldrich, St. Louis, Mo.) in saline. The trachea was then dissected free and cannulated with a 14G teflon tube (#NE-014, Small Parts, Miami Lakes, Fla.). If required, anesthesia was maintained by additional intramuscular injections of the aforementioned anesthetic cocktail. The depth of anesthesia was monitored and adjusted if the animal responded to pinching of its paw or if the respiration rate was greater than 100 breaths/minute.
Once the cannulations were complete, the animal was placed into a plethysmograph (#PLY3114, Buxco Electronics, Inc., Sharon, Conn.) and an esophageal pressure cannula was inserted to measure pulmonary driving pressure (pressure). The teflon tracheal tube was attached to the opening of the plethysmograph to allow the guinea pig to breathe room air from outside the chamber. The chamber was then sealed.
Once it was determined that baseline values were within the range 0.3-0.9 mL/cm H2O for compliance and within the range 0.1-0.199 cm H2O/mL per second for resistance, the pulmonary evaluation was initiated. A Buxco pulmonary measurement computer program enabled the collection and derivation of pulmonary values. Starting this program initiated the experimental protocol and data collection. The changes in volume over time that occurred within the plethysmograph with each breath were measured via a Buxco pressure transducer. By […] this signal over time, a measurement of flow was calculated for each breath. This signal, together with the pulmonary driving pressure changes, which were collected using a Sensym pressure transducer (#TRD4100), was connected via a Buxco (MAX 2270) preamplifier to a data collection interface (#'s SFT3400 and SFT3813). All other pulmonary parameters were derived from these two inputs.
Baseline values were collected for 5 minutes, after which time the guinea pigs were challenged with Ach. […]

pEC50, pKi: −log10 of the molar value.

T2 sequence (P07550 whole entry): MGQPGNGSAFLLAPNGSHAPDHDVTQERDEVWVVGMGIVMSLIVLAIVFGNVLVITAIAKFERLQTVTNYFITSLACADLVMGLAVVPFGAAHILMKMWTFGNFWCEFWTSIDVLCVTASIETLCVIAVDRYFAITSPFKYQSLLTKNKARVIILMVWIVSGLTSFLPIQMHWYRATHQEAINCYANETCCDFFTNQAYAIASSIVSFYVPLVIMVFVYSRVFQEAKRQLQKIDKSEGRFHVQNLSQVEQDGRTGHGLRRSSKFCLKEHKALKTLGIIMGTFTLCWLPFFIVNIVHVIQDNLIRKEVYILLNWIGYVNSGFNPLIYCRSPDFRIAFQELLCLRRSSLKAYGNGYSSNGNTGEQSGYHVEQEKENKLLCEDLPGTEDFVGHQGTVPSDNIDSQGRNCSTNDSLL
T1 sequence (P07550 whole entry): as above

In the case of `O=c1ccc2c([C@@H](O)CNCCCCCCNCCc3ccccc3)ccc(O)c2[nH]1` [Compound of the Invention, 8-hydroxy-5-[(R)-1-hydroxy-2-(6-phenethylamino-hexylamino)ethyl]-1H-quinolin-2-one], in experiment [1], the negative-log Ki (pKi) is 7.60 and the “Selectivity β2/β1 (binding)” value is on record as 18. For the same compound, on human β2-adrenoceptor, the pEC50 was 9.50, the “Selectivity β2/β1 (functional)” value came out at 107 and the “Selectivity β2/β3 (functional)” value stood at 3900. In experiment [2] (BEAS-2B endogenous cell line, cAMP), this compound gave a negative logarithm of the EC50 (pEC50) of 8.50. For the same compound, the Emax in experiment [2] (BEAS-2B, Emax relative to 10 μM isoproterenol, read-out: % Efficacy) amounted to 68%. In experiment [3], the “Activity at 1.5 hours post dose” value is recorded as “Yes” and the “Activity at 72 hours post dose” value is reported as “Yes”. Moreover, in experiment [3] (listed as compound of the invention), the “Activity at 72 hours post dose” value is “demonstrated bronchoprotection”.
`O=c1ccc2c([C@@H](O)CNCCCCCCOCCc3ccccc3)ccc(O)c2[nH]1` [Comparison Compound, 8-hydroxy-5-[(R)-1-hydroxy-2-(6-phenethyloxy-hexylamino)ethyl]-1H-quinolin-2-one, reference compound]: in experiment [1], the pKi was 9.10 and the “Selectivity β2/β1 (binding)” value is given as 76. Also, at human β2-adrenoceptor, the pEC50 was 10.30, the “Selectivity β2/β1 (functional)” value is recorded as 54 and the “Selectivity β2/β3 (functional)” value is 370. Besides, in experiment [3], the “Activity at 1.5 hours post dose” value is recorded as “Yes” and the “Activity at 72 hours post dose” value was “No”. In experiment [3] (listed as comparison compound), the “Activity at 72 hours post dose” value was “not active”.

Values taken from patent US20080039495A1, “Diamine Beta2 Adrenergic Receptor Agonists” (priority 2004, published 2008).
